From patent US9833455B2, “Preparation and methods of use for ortho-aryl 5-membered heteroaryl-carboxamide containing multi-targeted kinase inhibitors” (Spacefill Enterprises LLC, priority 2011, dated 2017) come the findings set out here.

As usually defined, the IC50 is the midpoint of a concentration-inhibition curve.

Like-named read-outs stand apart in the source and are kept apart here.

Holding throughout (assay): Reaction Biology P33 radiolabeled kinase assay, IC50 and time dependence
Format in all cases: biochemical

One test deals with T1, DDR2 (Homo sapiens, UniProt Q16832).
T1 sequence (Q16832 22-855): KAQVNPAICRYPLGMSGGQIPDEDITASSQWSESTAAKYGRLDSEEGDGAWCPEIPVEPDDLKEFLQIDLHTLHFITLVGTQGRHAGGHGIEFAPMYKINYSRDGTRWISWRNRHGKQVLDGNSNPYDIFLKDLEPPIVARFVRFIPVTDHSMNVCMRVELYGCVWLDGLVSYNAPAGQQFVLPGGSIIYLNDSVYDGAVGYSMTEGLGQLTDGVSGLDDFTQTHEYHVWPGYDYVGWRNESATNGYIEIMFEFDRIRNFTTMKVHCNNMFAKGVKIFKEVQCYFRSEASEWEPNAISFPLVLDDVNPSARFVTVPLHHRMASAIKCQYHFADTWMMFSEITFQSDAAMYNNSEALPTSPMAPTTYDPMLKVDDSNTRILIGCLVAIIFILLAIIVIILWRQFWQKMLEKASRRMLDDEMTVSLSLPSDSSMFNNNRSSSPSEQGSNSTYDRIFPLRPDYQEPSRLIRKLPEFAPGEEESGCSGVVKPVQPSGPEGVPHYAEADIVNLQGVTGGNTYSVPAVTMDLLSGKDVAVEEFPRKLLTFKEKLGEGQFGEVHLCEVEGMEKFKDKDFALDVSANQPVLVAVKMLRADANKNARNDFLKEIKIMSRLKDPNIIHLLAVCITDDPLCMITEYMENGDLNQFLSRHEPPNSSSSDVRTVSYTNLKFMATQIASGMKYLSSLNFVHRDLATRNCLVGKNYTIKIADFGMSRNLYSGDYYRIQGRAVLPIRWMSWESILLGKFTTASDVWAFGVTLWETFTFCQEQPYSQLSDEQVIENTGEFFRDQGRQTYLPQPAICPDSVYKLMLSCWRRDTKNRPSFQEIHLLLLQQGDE
As to conditions: for IC50: ATP 10 uM, read-out: Compound IC50* DDR2. How it is done:
(§1) “Inhibiting kinase activity” means to decrease the production of an phosphor-peptide by a particular kinase that can be separated by analytical techniques. For example, a comprehensive platform of kinase, protease, phosphatase and epigenetic assays that utilizes cutting-edge microfluidics and informatics tools to provide accurate and rapid results. Profiling data in this application were determined using these techniques at Nanosyn Inc. IC50 data were provided by Reaction Biology Inc using a P33 radiolabeled kinase assay.
(§2) The observation of potency and isoform selectivity with time-dependency for PI3K-γ appears to be unprecedented in the literature. In addition, these activities combined with inhibition of p38-α, Raf-1, DDR and CSF-1R, would be complimentary and potentially synergistic activities for both the treatment of certain inflammation based conditions and cancers.

Another test addresses PDGFR-α (Homo sapiens, UniProt P16234). As to conditions: for IC50: ATP 10 uM, read-out: Compound IC50* PDGFR-α. As to the method:
as §1, §2

In a further test the target is T2, Aurora A (Homo sapiens, UniProt O14965).
T2 construct: purchased Reaction Biology Inc (contract assay)
T2 sequence (O14965 1-403): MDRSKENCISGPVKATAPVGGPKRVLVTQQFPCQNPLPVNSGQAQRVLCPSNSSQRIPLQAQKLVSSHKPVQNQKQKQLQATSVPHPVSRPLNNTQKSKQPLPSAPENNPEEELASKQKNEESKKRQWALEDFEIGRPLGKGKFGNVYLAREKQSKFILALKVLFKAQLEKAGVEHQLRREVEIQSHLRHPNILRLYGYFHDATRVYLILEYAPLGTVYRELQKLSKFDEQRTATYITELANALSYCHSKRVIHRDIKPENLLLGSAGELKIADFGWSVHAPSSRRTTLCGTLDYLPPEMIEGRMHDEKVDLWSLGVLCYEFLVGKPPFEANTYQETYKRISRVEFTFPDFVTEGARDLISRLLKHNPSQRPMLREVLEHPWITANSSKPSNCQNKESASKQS
The conditions noted are these: for IC50: ATP 10 uM, read-out: Compound IC50* Aurora A. As to the method:
as §1, §2

In another test the target is T3, BRAF (Homo sapiens, UniProt P15056).
T3 construct: literature Ambit Biosciences
T3 sequence (P15056 whole entry): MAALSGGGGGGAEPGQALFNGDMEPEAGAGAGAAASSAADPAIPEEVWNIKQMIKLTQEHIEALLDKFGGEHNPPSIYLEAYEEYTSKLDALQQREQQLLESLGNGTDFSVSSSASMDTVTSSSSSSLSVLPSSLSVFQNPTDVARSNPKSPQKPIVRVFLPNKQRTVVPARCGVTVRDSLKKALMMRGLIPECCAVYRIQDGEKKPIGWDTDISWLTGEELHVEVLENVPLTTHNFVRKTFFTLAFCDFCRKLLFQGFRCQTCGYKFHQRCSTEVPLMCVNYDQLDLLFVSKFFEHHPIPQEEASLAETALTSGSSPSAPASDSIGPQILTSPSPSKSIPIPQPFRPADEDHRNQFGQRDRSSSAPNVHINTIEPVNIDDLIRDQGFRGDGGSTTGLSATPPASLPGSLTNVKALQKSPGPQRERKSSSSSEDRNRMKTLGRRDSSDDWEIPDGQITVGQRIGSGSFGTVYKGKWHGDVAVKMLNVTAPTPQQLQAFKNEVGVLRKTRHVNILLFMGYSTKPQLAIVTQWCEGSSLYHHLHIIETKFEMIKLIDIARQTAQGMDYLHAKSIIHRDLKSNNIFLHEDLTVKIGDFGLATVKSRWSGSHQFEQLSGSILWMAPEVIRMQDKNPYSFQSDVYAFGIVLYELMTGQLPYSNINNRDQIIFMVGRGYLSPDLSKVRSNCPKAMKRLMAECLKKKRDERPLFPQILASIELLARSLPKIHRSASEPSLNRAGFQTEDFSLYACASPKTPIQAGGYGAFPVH
The conditions noted are these: for IC50: ATP 10 uM, read-out: Compound IC50* BRAF. As to the method:
as §1, §2

Sequence of PDGFR-α (P16234 24-1089): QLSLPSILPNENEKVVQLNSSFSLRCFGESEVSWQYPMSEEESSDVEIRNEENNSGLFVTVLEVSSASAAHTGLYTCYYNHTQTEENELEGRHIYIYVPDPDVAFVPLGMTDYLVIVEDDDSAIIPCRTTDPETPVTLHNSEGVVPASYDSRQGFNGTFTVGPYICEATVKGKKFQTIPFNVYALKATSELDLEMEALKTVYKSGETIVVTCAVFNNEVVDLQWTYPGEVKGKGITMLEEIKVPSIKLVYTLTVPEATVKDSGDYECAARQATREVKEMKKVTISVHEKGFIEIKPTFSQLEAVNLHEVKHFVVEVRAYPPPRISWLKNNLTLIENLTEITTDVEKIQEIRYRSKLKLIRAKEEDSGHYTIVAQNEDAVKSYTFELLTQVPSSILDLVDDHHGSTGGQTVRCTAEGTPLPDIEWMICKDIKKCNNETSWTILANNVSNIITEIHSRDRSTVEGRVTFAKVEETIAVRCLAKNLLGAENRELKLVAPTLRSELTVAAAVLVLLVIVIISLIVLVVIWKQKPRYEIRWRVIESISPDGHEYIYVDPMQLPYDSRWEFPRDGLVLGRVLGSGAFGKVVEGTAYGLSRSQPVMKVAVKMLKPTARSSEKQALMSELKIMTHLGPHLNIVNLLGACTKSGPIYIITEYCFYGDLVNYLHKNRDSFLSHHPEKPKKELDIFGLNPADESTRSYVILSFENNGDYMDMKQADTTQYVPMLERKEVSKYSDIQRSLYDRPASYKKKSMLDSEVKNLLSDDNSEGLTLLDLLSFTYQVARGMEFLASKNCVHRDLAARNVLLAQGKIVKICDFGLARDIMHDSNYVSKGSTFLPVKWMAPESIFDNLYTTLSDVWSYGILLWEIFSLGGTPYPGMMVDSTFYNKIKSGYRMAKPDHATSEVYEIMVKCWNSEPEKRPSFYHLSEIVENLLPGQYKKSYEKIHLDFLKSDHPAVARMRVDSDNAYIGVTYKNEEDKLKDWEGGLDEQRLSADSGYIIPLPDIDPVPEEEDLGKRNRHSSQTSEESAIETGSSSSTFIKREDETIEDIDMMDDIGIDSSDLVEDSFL

For the molecule `Cc1ccc(NC(=O)c2nc(S(C)(=O)=O)[nH]c2-c2ccc(F)cc2)cc1Nc1nccc(-c2cccnc2)n1` [Inhibitor I-14, 3-(4-(pyridin-3-yl)-pyrimidinyl-2-yl)amino-4-methyl-analine, 5-(4-Fluorophenyl)-2-(methylsulfonyl)-1H-imidazole-4-carboxamide], the “Time Dependence Observed? DDR2” value on DDR2 (15 vs 60 Min preincubation) was “No”. Further, the IC50 came out at 222 nM on DDR2 (preincubation 15 Min); 221 nM on DDR2 (preincubation 60 Min); 178 nM on PDGFR-α (preincubation 15 Min); 342 nM on PDGFR-α (preincubation 60 Min); 2740 nM at Aurora A (preincubation 15 Min); 2630 nM on Aurora A (preincubation 60 Min). For the same molecule, the half-inhibitory concentration (IC50) amounted to 388 nM at BRAF (preincubation 15 Min) and 323 nM on BRAF (preincubation 60 Min). In addition, the “Time Dependence Observed? PDGFR-α” value at PDGFR-α (15 vs 60 Min preincubation) was “No”. The “Time Dependence Observed? Aurora A” value at Aurora A (15 vs 60 Min preincubation) is given as “No”. In addition, the “Time Dependence Observed? BRAF” value at BRAF (15 vs 60 Min preincubation) is “Yes”.
